Measurements as given in ChEMBL document CHEMBL1130983, “New acetylene based histamine H3 receptor antagonists derived from the marine natural product verongamine” (Bioorg Med Chem Lett, 1998).
pKi: −log10 of the molar value.

Key:
Cavia porcellus = species: Cavia porcellus; assay: In vitro activity on K+ induced R-alpha methyl histamine mediated inhibition of norepinephrine release from guinea pig cardiac synaptosomes; assay type: functional
Histamine H3 receptor [1] = target: T1, Histamine H3 receptor (Rattus norvegicus, UniProt Q9QYN8); assay: Inhibition of [3H]- N-alpha-methylhistamine from histamine H3 receptor
Rattus norvegicus = species: Rattus norvegicus; assay: Effective dose was evaluated for blood brain penetration using ex vivo binding techniques; assay type: functional
Histamine H3 receptor [2] = target: T1, Histamine H3 receptor; assay: Antagonistic activity was evaluated against histamine H3 receptor using [3H]- N-alpha-methylhistamine as radioligand in experiment 2; assay type: functional

T1 sequence (Q9QYN8 whole entry): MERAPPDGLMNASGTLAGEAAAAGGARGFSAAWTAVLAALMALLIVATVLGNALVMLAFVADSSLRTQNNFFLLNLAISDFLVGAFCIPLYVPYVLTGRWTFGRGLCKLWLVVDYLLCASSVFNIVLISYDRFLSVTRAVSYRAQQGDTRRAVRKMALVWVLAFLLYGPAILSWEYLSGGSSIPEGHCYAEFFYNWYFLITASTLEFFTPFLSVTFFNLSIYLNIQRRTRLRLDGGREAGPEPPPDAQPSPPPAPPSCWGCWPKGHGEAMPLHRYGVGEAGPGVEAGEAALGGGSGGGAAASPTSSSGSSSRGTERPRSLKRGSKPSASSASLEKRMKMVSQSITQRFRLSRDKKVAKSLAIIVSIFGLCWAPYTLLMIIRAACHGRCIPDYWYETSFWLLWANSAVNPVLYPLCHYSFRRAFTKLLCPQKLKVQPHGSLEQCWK

SMILES	Release (Cavia porcellus) [%]	pKi (Histamine H3 receptor [1])	ED50 (Rattus norvegicus) [mg/kg]	pKi (Histamine H3 receptor [2])
Cn1cncc1CCN	106	9.00	–	–
C(#CCCC1CCCCC1)CCc1c[nH]cn1	122	–	0.43	–
S=C(NC1CCCCC1)N1CCC(c2cnc[nH]2)CC1 [THIOPERAMIDE]	–	–	–	8.81
COc1ccc(C/C(=N\O)C(=O)NCCc2c[nH]cn2)cc1Br [VERONGAMINE]	–	9.30	–	–
C(#CCCC1CCCC1)CCc1c[nH]cn1	111	–	0.48	–
